Test results reported in PubChem BioAssay AID2423 (Broad Institute, 2010).
pEC50: −log10 of the molar value. Inconclusive results are not listed. The source made the active and inactive calls. No rule for the calls is given here.

System: C. albicans CaCi-8 + fluconazole, Alamar Blue growth, 48 h
Assay: resistant C. albicans growth inhibition with fluconazole, dose response, CaCi-8 strain, Alamar Blue fluorescence (AID 2423)

Row | Structure (SMILES) | pEC50 | EC50
1 | Cn1c(N/N=C/c2c[nH]c3ccccc23)nc2ccccc21 | 5.22 | 
2 | COc1cccc2sc(Nc3nnc(-c4ccc(F)cc4)o3)nc12 | 5.91 | 
3 | COc1cc(OC)cc(C(=O)NNC(=O)Cc2ccc(OC)c(S(=O)(=O)N3CCOCC3)c2)c1 |  | > 15 µM (inactive)
4 | O=C(Cc1ccccc1)Nc1nonc1NC(=O)c1ccccc1 | 6.32 | 
5 | CN1CCN(C(c2cccnc2)c2ccc3cccnc3c2O)CC1 (stereo not drawn) |  | > 16 µM (inactive)
6 | CCCc1cc(=O)[nH]c(SCc2csc(-c3ccccc3)n2)n1 | 5.86 | 
7 | CCC(Oc1ccccc1)C(=O)Nc1ncc([N+](=O)[O-])s1 (stereo not drawn) |  | > 16 µM (inactive)
8 | CC1=C(CC[C@@H](C)CO)OC2CC3C4CCC5CC(O)CCC5(C)C4CC(=O)C3(C)C12 (stereo partly drawn) | 6.87 | 
9 | c1ccc(-c2cccc(-c3ccccn3)n2)nc1 | 6.28 | 
10 | NS(=O)(=O)c1ccc(N=Nc2ccc(O)c3ncccc23)cc1 | 5.86 | 
11 | CC(=O)N1CCC(=NNC(=O)c2cc3ccccc3cc2O)CC1 | 4.93 | 
12 | COc1ccc(/C=N/NC(=O)c2cc(O)c(O)c(O)c2)cc1Cn1cc([N+](=O)[O-])cn1 | 5.84 | 
13 | O=C(Nc1nc2ccc(S(=O)(=O)N3CCCCC3)cc2s1)c1ccncc1 | 5.98 | 
14 | N#C/C(=C(/O)c1ccco1)c1nc2ccccc2[nH]1 | 6.17 | 
15 | NC(=O)CC12CC3CC(C1)CC(CC(N)=O)(C3)C2 |  | > 16 µM (inactive)
16 | Cc1csc2ncnc(NCCc3ccccn3)c12 | 5.22 | 
17 | O=C(NNC(=S)NC(=O)c1ccc(Br)cc1)c1ccc([N+](=O)[O-])cc1 | 6.38 | 
18 | COc1ccc(NC(=O)c2cc([N+](=O)[O-])ccc2O)cc1 | 5.41 | 
19 | Nc1nonc1C(=O)N/N=C/c1cc(Br)ccc1O | 5.03 | 
20 | COc1cccc(/C=N/Nc2cc(N3CCOCC3)ncn2)c1O | 5.20 | 
21 | CCCOC(=O)/C(=C\c1ccc([N+](=O)[O-])o1)NC(=O)c1ccccc1 |  | > 16 µM (inactive)
22 | C/C(=N\NC(=O)c1cccc(N/N=C(\C)c2cc(O)ccc2O)c1)c1cc(O)ccc1O |  | > 15 µM (inactive)

Row | Structure (SMILES) | pEC50 | EC50
23 | O=C(O)COc1ccccc1C(Nc1cccnc1)c1cc(Cl)c2cccnc2c1O (stereo not drawn) | 5.00 | 
24 | c1ccc(CN2CCc3nc4ccccc4cc3C2)cc1 |  | > 16 µM (inactive)
25 | C/C(CC(C)(C)C1CCCCC1)=N\NC(N)=S |  | > 16 µM (inactive)
26 | Cc1ccc(C2CC2C(=O)NNC(=S)Nc2cccc(Cl)c2)cc1 (stereo not drawn) | 5.48 | 
27 | COc1cc(C(=O)NC(=S)N(CCc2ccccc2)CCc2ccccc2)cc(OC)c1OC | 5.74 | 
28 | Cc1ccc(C2=NNC3(CCOC(C)(C)C3)S2)cc1 (stereo not drawn) | 4.83 | 
29 | CC(=O)Nc1cccc(NC(=O)Nc2cccc(F)c2)c1 |  | > 15 µM (inactive)
30 | C(#Cc1ccccc1)C[N+]1(CC#Cc2cccc3ccccc23)CCCC1 | 5.25 | 
31 | CC1(C)CC(N=Cc2c(O)n(Cc3ccc4c(c3)OCO4)c(=O)c3ccccc23)CC(C)(C)N1 | 5.41 | 
32 | Cc1ccc(S(=O)(=O)CC2CSc3nc4ccccc4n32)cc1 (stereo not drawn) | 5.60 | 
33 | COc1cc(OC)c2cc(C(=O)N/N=C/c3ccccc3O)[nH]c2c1 | 5.91 | 
34 | Oc1ccc(/C=N/n2c(COc3ccccc3)n[nH]c2=S)cc1O | 4.79 | 
35 | CCOC(=O)C1CCCN(c2cc(C)nc3cc(-c4ccc(F)cc4)nn23)C1 (stereo not drawn) |  | > 16 µM (inactive)
36 | CCC(=O)NC(c1ccc(Cl)cc1Cl)c1ccc2cccnc2c1O (stereo not drawn) | 6.15 | 
37 | COc1ccc(-c2cc(-c3cc(F)ccc3O)[nH]n2)cc1OC | 4.86 | 
38 | FC(F)(F)c1ccccc1NC(=S)NN=C1CCCCCC1 | 5.31 | 
39 | Cc1c(Nc2scc(-c3ccccc3)[n+]2-c2ccccc2)c(=O)n(-c2ccccc2)n1C | 6.65 | 
40 | CCOc1cc(-c2nc(-c3cc(OC)c(OC)c(OC)c3)no2)cc(OCC)c1OCC |  | > 16 µM (inactive)
41 | COc1ccc(-c2nc(CN3CCN(c4cc(C)nc(C)c4)CC3)c(C)o2)c2ccccc12 | 5.60 | 
42 | COc1ccc(-n2nc(C(=O)NCC(=O)N3CCN(c4ccccc4)CC3)c3ccccc3c2=O)c(OC)c1 | 6.16 | 
43 | O=C(Oc1c(CN2CCOCC2)cc(Cl)c2cccnc12)c1ccc(F)cc1 | 5.51 | 
